What was measured:
[1] = design: species or system human; details: in vivo
Description: To assess possible metabolites of taniborbactam, plasma and urine samples were pooled across subjects by time points, processed, and analyzed by ultra-high performance liquid chromatography tandem mass spectrometry with a quadrupole time-of-flight mass spectrometer, for acquisition of high-resolution accurate mass data, in positive mode with electrospray ionization, incorporating in-line UV detection with a photodiode array detector (Waters Acquity UPLC). The acquired chromatographic and mass spectral data were compared to analogous data obtained for the corresponding predose and placebo-dose samples to identify metabolites potentially associated with taniborbactam metabolism. Chromatographic peaks observed to be unique to the samples were subject to investigation by mass spectrometric techniques.

[2] = test system: Pseudomonas aeruginosa isolates; design: method as in ref 13, 14 = [13]; 13 Vidales A , Hackel M , Wise M , Sahm D . 2020 . Antimicrobial activity of cefepime in combination with taniborbactam (formerly VNRX-5133) against clinical isolates of Enterobacterales collected fro || [14]; 14 Kalamatas J , Hackel M , Wise M , Sahm D . 2020 . Antimicrobial activity of cefepime in combination with taniborbactam (formerly VNRX-5133) against a 2018–2019 surveillance collection of Pseudomona; details: cited from earlier work
[3] = test system: cefepime-resistant β-lactamase-producing pathogens; design: method as in ref 15, 16 = [15]; 15 Georgiou P-C , Siopi M , Tsala M , Lagarde C , Kloezen W , Donnelly R , Meletiadis J , Mouton J . 2018 . VNRX-5133, a novel broad-spectrum beta-lactamase inhibitor, enhances the activity of cefepim || [16]; 16 Weiss W , Pulse M , Nguyen P , Valtierra D , Peterson K , Carter K , Pevear D , Burns C , Xerri L . 2018 . Efficacy of cefepime/VNRX-5133, a novel beta-lactamase inhibitor combination, against ceph; details: cited from earlier work

For `NCCN[C@H]1CC[C@H](CC(=O)N[C@H]2Cc3cccc(C(=O)O)c3OB2O)CC1` [Taniborbactam], the “biotransformation products with a detectable UV response in pooled plasma samples” value [1] is listed as “no significant taniborbactam biotransformation products”, the “potentiation of cefepime activity as measured by the MIC90” value [2] is listed as 4 fold and the “in vivo efficacy of cefepime” value [3] is listed as “restored the in vivo efficacy of cefepime”.

From article PMC8522722, “Safety and Pharmacokinetics in Human Volunteers of Taniborbactam (VNRX-5133), a Novel Intravenous β-Lactamase Inhibitor” (Antimicrobial Agents and Chemotherapy, 2021)
